# From patent EP1462117A1, “Method for in vivo detection of antipsychotic properties of dopamine D3 receptor ligands” (priority 2003, dated 2004)
# Values joined by “and” are separate entries in the source; they are usually repeats but may differ in a detail not shown here. Equal entries are not always repeated.
# Experiments:
# [1] = tested on: Swiss mice; experiment: MK-801 (dizocilpine)-induced and spontaneous locomotor activity, acute treatment, actimeter; format: in vivo; details: for MK-801-induced hyperactivity: post-hoc vs saline
# Experimental: (§1) Male Swiss mice (Iffa Credo, France), weighing 25-30 g, were housed four per cage (25 × 15 × 13 cm), on a 12 hr/12 hr light/dark cycle (lights on at 07:00 a.m.), with food and water ad libitum. […] Experiments with D3R-deficient mice were performed on male homozygous mutant mice and their wild-type littermates. […] The mice used in the present study were backcrossed 7 to 8 times.
# Haloperidol (Janssen Pharmaceuticals, Beerse, Belgium) and clozapine (Novartis, Basel, Switzerland) were dissolved in a few drops of hydrochloric acid and distilled water, and the pH of the solution was adjusted to pH 5 to 6 using NaOH. […] The compounds were injected i.p. in a volume of 5 ml/kg.
# (§2) All experiments were conducted between 2.00 p.m. and 6.00 p.m., and the animals were kept in the test room at least 1 h before recording their activity. […] Counts for forward horizontal activity were incremented each time the animal moved from one-half part of the cage to the other, corresponding to disruption of two crossed parallel beams distant of 14 cm. In time-course studies, counts were summed every 5 min.
# (§3) Between-group differences were analyzed with the Statistica™ software using two-way analysis of variance (ANOVA) and Least Significance Difference (LSD) post-hoc test. The analysis of data obtained with the same animals evaluated on several occasions (time-course experiments), between-within univariate or multivariate ANOVA for repeated measures were used (time being the repeated measure).
# To assess simply the in vivo biological activity of the novel compound at the D3 receptor, the above described test, in which hyperlocomotion induced by low doses of dizocilpine is measured, was used.
# [2] = tested on: wild-type (D3R^+/+) mice; experiment: MK-801-induced locomotor activity in wild-type mice; format: in vivo
# Experimental: Male Swiss mice (Iffa Credo, France), weighing 25-30 g, were housed four per cage (25 × 15 × 13 cm), on a 12 hr/12 hr light/dark cycle (lights on at 07:00 a.m.), with food and water ad libitum. […] Experiments with D3R-deficient mice were performed on male homozygous mutant mice and their wild-type littermates. […] Subsequently, these mice were backcrossed up to 8 times with C57BL6 mice. The mice used in the present study were backcrossed 7 to 8 times.
# as §2
# (§4) In addition, another experiment was performed with two groups of 8 mice of each genotype, injected with either saline or haloperidol (0.05 mg/kg).
# as §3
# [3] = tested on: D3 receptor-deficient mice (D3R^-/-); experiment: MK-801-induced locomotor activity in D3 receptor-deficient mice; format: in vivo; details: compound 1 mg/kg; MK-801 […]; D3R^-/- mice
# Experimental: as §1, §2, §4, §3
# [4] = tested on: Swiss mice; experiment: Locomotor hyperactivity induced by continuous infusion of MK-801 (osmotic minipumps); format: in vivo
# Experimental: Male Swiss mice (IFFA CREDO, France), weighing 26-28 g, were housed six per cage (25 × 15 ×13 cm), on a 12 h/12 h light/dark cycle (lights on at 07:00 a.m.), with food and water freely available. Room temperature ranged from 20° to 22°C and humidity varied between 55% and 65%.
# Dizocilpine, as (+)-MK-801 maleate (Sigma), dissolved in 0.9% NaCl (saline), and its respective vehicle solution, was continuously infused via osmotic minipumps (Model 1007D, Alzet Corp.). Minipumps were filled 6 h prior to implantation and placed in a sterile saline water bath at 37°C. Taking into consideration the average weight of the mice at the time of testing, and the rate of the minipump delivery (specified by the manufacturer), the MK-801 concentration was adjusted to deliver 0.01 or 0.02 mg/kg/hr (0.48 mg/kg/day). Mice were anaesthetized with chloral hydrate (400 mg/kg i.p.), and an area on the back of the mice was shaved and cleaned with 70% ethanol. A small incision was made, a pocket beneath the skin was formed and the minipump was placed inside the pocket in each mouse. The incision was sutured, and cleaned with 70% ethanol. The mice were returned in their home cage and in about 2 h they had recovered and were active.
# Once the minipumps implanted (Day 0), the locomotor activity was measured for 1h, at days 2, 4 and 7 in an actimeter (Imetronic, Pessac, France).
# (§5) Between-group differences were analyzed with the Statistica™ software using two-way analysis of variance (ANOVA) and Least Significance Difference (LSD) post-hoc test. The analysis of data obtained with the same animals evaluated on several occasions (time-course experiments), between-within univariate or multivariate ANOVA for repeated measures were used (time being the repeated measure). Data from the resident-intruder assay were analyzed by analysis of variance (ANOVA), followed by a Tukey-Kramer Multiple Comparison post-hoc test.
# [5] = tested on: MK-801-treated mice; experiment: Resident-intruder assay in MK-801-treated mice; format: in vivo; details: MK-801 0.02 mg/kg/h for 7 days; compound 1 mg/kg i.p. 30 min prior testing; 5 min
# Experimental: Male mice were housed individually or in groups of five for at least 1 week prior to minipump implantation (Day 0), delivering MK-801 (0.02 mg/kg/h) or saline (Sham), and were tested at day 7. As described in Dixon et al. (1994), a group-housed male (intruder) was placed in the home cage of the individually housed male (resident), and their behaviors were video recorded for 5 min. […] The videotaped behaviors of the resident or intruder male were individually scored, by an experimenter unaware of the treatment group, for time spent in social investigation (approaching, sniffing, grooming other mouse, and sexual behavior), and in escape behavior (actively avoiding the unfamiliar congener). The scores for each behavior were subsequently averaged for each group.
# as §5
# [6] = tested on: PD-like rats; experiment: Rotations in PD-like rats (6-hydroxydopamine lesion, levodopa-treated); format: in vivo; details: saline 108 ± 7
# [7] = Plasma concentrations in monkeys (radioreceptor assay); format: in vivo
# [8] = Plasma concentrations in mice; format: in vivo; details: after injection at a dose giving selective effects at the D3 receptor; n = 6
# [9] = tested on: MPTP-intoxicated monkeys; experiment: Levodopa-induced dyskinesia, PD-like symptoms and locomotor activity in MPTP-intoxicated monkeys
smiles,measurement,setting,value
"COc1ccccc1N1CCN(CCCCNC(=O)c2ccc3ccccc3c2)CC1 [BP 897, 1-(4-(2-Naphthoylamino)butyl)-4-(2-methoxyphenyl)-1A-piperazine]",activity with MK-801,"[1]; MK-801 […], 60 min, compound i.p. 0.1, 0.3, 1 mg/kg (haloperidol 0.03, 0.1, 0.3 mg/kg), overall dose-response",dose-dependently reduced
same,level to which locomotor activity in MK-801-treated mice was reduced,"[1]; MK-801 […], level corresponds to saline-treated mice",30-40%
same,MK-801-induced hyperactivity,"[1]; compound 0.3 mg/kg i.p., MK-801 […]",significantly reduced
same,MK-801-induced hyperactivity,"[1]; compound 1 mg/kg i.p., MK-801 […]",significantly reduced
same,decrease of the activity in the presence of MK-801,"[1]; compound 1 mg/kg, MK-801 0.3 mg/kg, statistically non significant",10-15%
same,spontaneous activity,"[1]; habituation phase, 30 min starting 5 min after injection, all doses tested",without any effect
same,minimal active dose to reduce the hyperactivity induced by 0.3 mg/kg of MK-801,[2]; D3R^+/+ and D3R^-/- mice,3 mg/kg
same,MK-801-induced activity,"[2]; compound 1 mg/kg, MK-801 […], D3R^+/+ mice",inhibited
same,spontaneous activity during the habituation phase,"[2]; compound 1 mg/kg, experiment with D3R^+/+ and D3R^-/- mice",Neither of the drugs affected
same,locomotor response to MK-801,[3],no longer able to inhibit
same,MK-801-induced hyperactivity,"[4]; acute administration on the 10th day after minipump implantation, clozapine 1 mg/kg, haloperidol 0.3 mg/kg, BP 897 1 mg/kg",effect similar to that produced by clozapine or haloperidol
same,spontaneous hyperactivity,"[4]; subchronic treatment twice a day for 4.5 days from day 6, BP 897 1 mg/kg, haloperidol 0.3 mg/kg, recorded at least 6 hours after last administration",reversed
same,methamphetamine-induced hyperactivity,"[4]; subchronic treatment twice a day for 4.5 days from day 6, methamphetamine 1 mg/kg, recorded at least 6 hours after last administration",reversed
same,Social investigations,[5],restored
same,escape behavior,[5],completely normalized
same,numbers of rotations,"[6]; BP 897 0.1 mg/kg with levodopa 50 mg/kg, n = 8",89 ± 10
same,numbers of rotations,"[6]; BP 897 0.3 mg/kg with levodopa 50 mg/kg, n = 17",91 ± 12
same,numbers of rotations,"[6]; BP 897 1.0 mg/kg with levodopa 50 mg/kg, n = 13",68 ± 8
same,numbers of rotations,"[6]; BP 897 3.0 mg/kg with levodopa 50 mg/kg, n = 13",66 ± 12
same,maximal plasma concentration,[7]; BP 897 5.0 or 10 mg/kg orally,280 ± 110 nM
same,time of maximal plasma concentration,"[7]; monkey, in vivo",60 min
same,half-life,"[7]; monkey, plasma",~1 h
same,plasma concentration,[8],130 ± 14 nM
same,attenuation of LID,"[9]; calculated from areas under curve, BP 897 5.0 or 10 mg/kg orally with levodopa",66%
same,on-time duration,"[9]; from activity counts, threshold at 30% of the maximal activity, over 5 hr",no difference with placebo
same,antidyskinetic effect along repeated administrations,"[9]; one monkey, BP 897 12 times",did not show any obvious signs of decline
same,dose reaching a maximal effect on LID,"[9]; tailored for each monkey, oral, with a fixed dose of levodopa, 5.0 (n = 1), 10 (n = 4)",5.0 mg/kg and 10 mg/kg
same,locomotor activity (activity counts),[9]; with levodopa,undermine the levodopa-induced activity around the dyskinesia threshold
same,antiparkinson activity of the compound alone,"[9]; without levodopa, two dyskinetic monkeys",no antiparkinson activity
